Experimental data reported in PubChem BioAssay (NCI).
Several values for one entry are separate records, joined by “and”; a condition that tells them apart may be missing. Equal values may be shown once.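 Step 1: Grow cells in 96-well plates. Step 2: Expose to compound for 48 hours at 5 concentrations. Step 3: Interpolate endpoints linearly; if unreached, use highest concentration. Abbreviation: GI50, concentration required for 50% inhibition of growth. TGI: concentration producing complete growth inhibition.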

Legend:
Assay in all cases: NCI tumour cell line growth inhibition, 48 h
[1] = system: 786-0 renal
[2] = system: HCT-116 colon
[3] = system: IGROV1 ovarian
[4] = system: NCI-H226 lung
[5] = system: NCI-H460 lung
[6] = system: OVCAR-8 ovarian
[7] = system: RXF 393 renal
[8] = system: SW-620 colon
[9] = system: M14 melanoma
[10] = system: SK-MEL-5 melanoma

Work on `CC1=C(C(=O)Nc2ccccc2C)C(c2ccccc2C)C(C(=O)Nc2ccccc2C)=C(C)N1` yielded a TGI [1] of 34.5 µM, a TGI [2] of 50.4 µM and a TGI [3] of 40.1 µM. The TGI [4] was 46.9 µM, the TGI [5] was 53.9 µM and the TGI [6] was 36.8 µM. The TGI [7] was 26.2 µM and the TGI [8] was 36.2 µM.

`COC(=O)C1=C(c2ccc(Cl)cc2)C(O)N=C(NN)N1` (centres undefined) gave a TGI [1] greater than 100 µM, a TGI [2] greater than 100 µM and a TGI [3] greater than 100 µM. It also gave a TGI [9] greater than 100 µM, a TGI [4] greater than 100 µM and a TGI [5] greater than 100 µM. For the same compound, the TGI [6] was greater than 100 µM, the TGI [7] was greater than 100 µM and the TGI [10] was greater than 100 µM. The TGI [8] was greater than 100 µM.

`O=C(CC(=O)c1ccccc1)C(=O)NC12CC3CC(CC(C3)C1)C2` was tested, and the TGI [1] was 99.7 µM, the TGI [2] was greater than 100 µM and the TGI [3] was greater than 100 µM. For the same compound, the TGI [9] was greater than 100 µM, the TGI [4] was greater than 100 µM and the TGI [5] was greater than 56.9 µM. The TGI [6] was greater than 100 µM, the TGI [7] was greater than 47.3 µM and the TGI [10] was greater than 100 µM. The TGI [8] was greater than 58.7 µM.

`O=C1NN=C(c2ccc([N+](=O)[O-])cc2)C1n1nc(-c2ccccc2)c2ccccc2c1=O` (centres undefined) was tested, and the TGI [1] was greater than 100 µM, the TGI [2] was greater than 100 µM and the TGI [3] was greater than 100 µM. For the same compound, the TGI [9] was greater than 100 µM, the TGI [4] was greater than 100 µM and the TGI [5] was greater than 100 µM. It also gave a TGI [6] greater than 100 µM, a TGI [7] greater than 100 µM and a TGI [10] greater than 100 µM. For the same compound, the TGI [8] was greater than 100 µM.

With `Cc1ccc(-c2c3c(N)c4c(nc3nc3c2c(C)nn3-c2ccccc2)CCC4)cc1` the GI50 [1] was 1.87 µM, the TGI [1] was 3.65 µM and the GI50 [2] was 1570 nM. The TGI [2] was 3.41 µM, the GI50 [3] was 4020 nM and the TGI [3] was 16.2 µM. It also gave a GI50 [9] of 6.25 µM, a TGI [9] of 20.1 µM and a GI50 [4] of 22.1 µM. For the same compound, the TGI [4] was 53.7 µM, the GI50 [5] was 2.02 µM and the TGI [5] was 4.44 µM. It also gave a GI50 [6] of 2320 nM, a TGI [6] of 5.89 µM and a GI50 [7] of 1580 nM. For the same compound, the TGI [7] was 3.25 µM, the GI50 [10] was 1730 nM and the TGI [10] was 3.31 µM. The GI50 [8] was 2600 nM and the TGI [8] was 9.57 µM.

In the case of `O=C1C=C(OCCCl)C(=O)c2c(O)ccc(O)c21`, the GI50 [1] was 2.52 µM, the TGI [1] was 3.22 µM and 6.75 µM and the GI50 [2] was 1330 nM. For the same compound, the TGI [2] was 1.33 µM and 3.2 µM, the TGI [3] was 3.43 µM and 3.66 µM and the GI50 [9] was 0.741 µM. The TGI [9] was 0.32 µM and 2.19 µM, the TGI [4] was 5.07 µM and 4.64 µM and the GI50 [5] was 2.15 µM. For the same compound, the TGI [5] was 2.05 µM and 4.67 µM, the GI50 [6] was 1590 nM and the TGI [6] was 5.08 µM and 3.03 µM. The TGI [7] was 3.38 µM and 3.96 µM, the TGI [10] was 0.321 µM and 0.299 µM and the GI50 [8] was 296 nM and 1560 nM. The TGI [8] was 1.15 µM and 3.85 µM.

`COc1cc2nncc(SCc3ccc(Cl)c(Cl)c3)c2cc1OC` was tested, and the TGI [1] was greater than 100 µM, the TGI [2] was greater than 100 µM and the TGI [3] was greater than 100 µM. The TGI [9] was greater than 100 µM, the TGI [4] was greater than 100 µM and the TGI [5] was greater than 100 µM. It also gave a TGI [6] greater than 100 µM, a TGI [7] greater than 100 µM and a TGI [10] greater than 100 µM. For the same compound, the TGI [8] was greater than 100 µM.

Work on `Nc1ccccc1C#C/C=C\C#Cc1ccccc1F` yielded a GI50 [1] of 9.28 µM, a TGI [1] of 23.6 µM and a GI50 [2] of 3520 nM. For the same compound, the TGI [2] was 16.1 µM, the GI50 [3] was 5340 nM and the TGI [3] was 28.8 µM. It also gave a GI50 [9] of 5.39 µM, a TGI [9] of 18.3 µM and a GI50 [4] of 15.2 µM. For the same compound, the TGI [4] was 33.3 µM, the GI50 [5] was 6.17 µM and the TGI [5] was 21.2 µM. It also gave a GI50 [6] of 18500 nM, a TGI [6] of 67.7 µM and a GI50 [7] of 17800 nM. The TGI [7] was 57.5 µM, the GI50 [10] was 2730 nM and the TGI [10] was 12.3 µM. It also gave a GI50 [8] of 16000 nM and a TGI [8] greater than 100 µM.

For `CN(C)c1ncnc2c1ccn2C1OC(CO)C(O)C1O` (centres undefined), the GI50 [1] was 3.98 µM, the TGI [1] was 97.8 µM and the GI50 [2] was 2970 nM. It also gave a TGI [2] greater than 100 µM, a GI50 [3] of 237 nM and a TGI [3] of 4.22 µM. It also gave a GI50 [9] of 16.1 µM, a TGI [9] greater than 100 µM and a GI50 [4] greater than 100 µM. For the same compound, the TGI [4] was greater than 100 µM, the GI50 [5] was 4.19 µM and the TGI [5] was greater than 100 µM. The GI50 [6] was 890 nM, the TGI [6] was 6.81 µM and the GI50 [7] was 18100 nM. It also gave a TGI [7] greater than 100 µM, a GI50 [10] greater than 100000 nM and a TGI [10] greater than 100 µM. For the same compound, the GI50 [8] was 2550 nM and the TGI [8] was greater than 100 µM.

Work on `NCCSC(C[N+](=O)[O-])c1ccccc1Cl` (centres undefined) yielded a GI50 [1] of 2.16 µM, a TGI [1] of 4.33 µM and a GI50 [2] of 1180 nM. For the same compound, the TGI [2] was 3.08 µM, the GI50 [3] was 2890 nM and the TGI [3] was 9.67 µM. It also gave a GI50 [9] of 2.14 µM, a TGI [9] of 6.01 µM and a GI50 [4] of 2.28 µM. For the same compound, the TGI [4] was 5.55 µM, the GI50 [5] was 11.8 µM and the TGI [5] was 32 µM. The GI50 [6] was 6430 nM, the TGI [6] was 23.8 µM and the GI50 [7] was 2270 nM. For the same compound, the TGI [7] was 11.1 µM, the GI50 [10] was 3030 nM and the TGI [10] was 10.1 µM. For the same compound, the GI50 [8] was 1820 nM and the TGI [8] was 4.05 µM.

For `CC(C)=CCc1cc(C2COc3cc4c(c(O)c3C2=O)C=CC(C)(C)O4)c(O)cc1O` (centres undefined), the TGI [1] was 36.7 µM, the TGI [2] was 54.5 µM and the TGI [3] was 36.4 µM. It also gave a TGI [9] of 26.2 µM, a TGI [5] of 27.4 µM and a TGI [6] of 51.2 µM. It also gave a TGI [7] of 20.6 µM, a TGI [10] of 25 µM and a TGI [8] of 57.3 µM.

`CCSC(=O)C1(C)OC2CCCCC2C1=O` (centres undefined) gave a TGI [1] greater than 100 µM, a TGI [2] greater than 100 µM and a TGI [3] greater than 100 µM. For the same compound, the TGI [9] was greater than 100 µM, the TGI [4] was greater than 100 µM and the TGI [5] was greater than 100 µM. The TGI [6] was greater than 100 µM, the TGI [7] was greater than 100 µM and the TGI [10] was greater than 100 µM. For the same compound, the TGI [8] was greater than 100 µM.

Compound `O=c1[nH]nc(-c2ccccc2)c2c(-c3ccccc3)onc12` has a GI50 [1] of 5.47 µM, a TGI [1] greater than 100 µM and a GI50 [2] of 333 nM. For the same compound, the TGI [2] was greater than 100 µM, the GI50 [3] was 615 nM and the TGI [3] was greater than 100 µM. For the same compound, the GI50 [9] was 0.329 µM, the TGI [9] was greater than 100 µM and the GI50 [4] was greater than 21 µM. For the same compound, the TGI [4] was greater than 100 µM, the GI50 [5] was 0.383 µM and the TGI [5] was greater than 62.6 µM. The GI50 [6] was 812 nM, the TGI [6] was greater than 100 µM and the GI50 [7] was 1190 nM. The TGI [7] was greater than 37.9 µM, the GI50 [10] was 352 nM and the GI50 [8] was 319 nM. The TGI [8] was greater than 100 µM.

`CC1CC(=O)c2c(ccc3c2C(=O)c2cccc(O)c2C3=O)C1` (centres undefined) gave a TGI [1] of 21.2 µM, a TGI [2] of 20.1 µM and a TGI [9] of 10.7 µM. The TGI [4] was 34.3 µM, the TGI [5] was 19.5 µM and the TGI [6] was 11.1 µM. It also gave a TGI [10] of 8.48 µM and a TGI [8] of 17.4 µM.

With `COc1ccc(C=C2C(=O)NC(=O)NC2=O)cc1OCc1ccccc1` the GI50 [1] was 52.9 µg/mL, the GI50 [2] was 40.5 µg/mL and the GI50 [3] was 27.1 µg/mL. The GI50 [9] was 28.1 µg/mL, the TGI [9] was 82.5 µg/mL and the GI50 [4] was 49.1 µg/mL. The GI50 [6] was 57.3 µg/mL, the GI50 [7] was 12 µg/mL and the GI50 [10] was 49 µg/mL. It also gave a GI50 [8] of 50.7 µg/mL.

`NS(=O)(=O)c1ccc(NC(=O)c2cccc3c(Nc4ccc(S(N)(=O)=O)cc4)c4ccccc4nc23)cc1` gave a TGI [1] greater than 100 µM, a TGI [2] greater than 100 µM and a TGI [3] greater than 100 µM. For the same compound, the TGI [9] was greater than 100 µM, the TGI [5] was greater than 100 µM and the TGI [6] was greater than 100 µM. The TGI [7] was greater than 100 µM, the TGI [10] was greater than 100 µM and the TGI [8] was greater than 100 µM.

In the case of `COC1C(O)C(C)OC(O[C@@H]2C[C@H]3CC[C@@H]4[C@H](CC[C@]5(C)[C@@H](C6=CC(=O)OC6)CC[C@]45O)[C@@]3(C)[C@H](O)C2)C1O` (some centres undefined), the TGI [1] was greater than 100 µM, the TGI [2] was 0.0994 µM and the TGI [9] was 0.252 µM. The TGI [4] was 0.532 µM, the TGI [5] was 0.0222 µM and the TGI [6] was 0.268 µM. For the same compound, the TGI [7] was 0.0363 µM and the TGI [10] was 0.122 µM.

`COC(=O)C1C(/C=C/c2ccoc2)ON2CCC[C@@H]12` (some centres undefined) gave a TGI [1] greater than 100 µM, a TGI [9] greater than 100 µM and a TGI [4] greater than 100 µM. For the same compound, the TGI [5] was greater than 100 µM, the TGI [6] was greater than 100 µM and the TGI [7] was greater than 100 µM. For the same compound, the TGI [8] was greater than 100 µM.
